Measurements published in patent publication US7592457B2 (Korea Research Institute of Chemical Technology, priority 2004, dated 2009).
Like-named read-outs stand apart in the source and are kept apart here.

What was measured:
5-HT6 receptors [1] = target: T1, 5-HT6 receptors (Homo sapiens, UniProt P50406); conditions: antagonist, literature; cited from earlier work
5-HT2c = target: T2, 5-HT2c (Homo sapiens, UniProt P28335); test: Radioligand binding, 5-HT2c ([3H]Mesulergine); conditions: read-out: Binding affinity (Inhibition rate % at 10 μM) 5HT2c
T2 construct: purchased Euroscreen/BioSignal Packard Inc
T2 sequence (P28335 33-458): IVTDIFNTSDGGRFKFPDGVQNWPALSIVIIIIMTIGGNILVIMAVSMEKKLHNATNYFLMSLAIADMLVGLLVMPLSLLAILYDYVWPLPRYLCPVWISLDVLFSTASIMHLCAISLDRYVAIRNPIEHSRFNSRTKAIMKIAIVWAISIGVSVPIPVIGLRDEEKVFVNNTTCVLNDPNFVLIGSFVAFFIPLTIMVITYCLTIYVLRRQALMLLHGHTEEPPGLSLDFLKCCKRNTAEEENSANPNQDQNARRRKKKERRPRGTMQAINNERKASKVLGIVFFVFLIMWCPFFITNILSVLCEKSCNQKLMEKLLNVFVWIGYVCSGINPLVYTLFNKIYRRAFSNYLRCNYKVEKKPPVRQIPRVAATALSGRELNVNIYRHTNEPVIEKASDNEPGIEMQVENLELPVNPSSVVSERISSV
Description: (§1) Radioligand bindings were performed according to the test method provided by the supplier of receptor membrane (Euroscreen/BioSignal Packard Inc.).

hD2L receptor = target: T3, hD2L receptor (Homo sapiens, UniProt P14416); test: Radioligand binding, dopamine D2 ([3H]spiperone); conditions: read-out: Binding affinity (Inhibition rate % at 10 μM) D2
T3 construct: purchased BioSignal Packard Inc., Montreal, Canada

5-HT7 = target: T4, 5-HT7 (Homo sapiens, UniProt P34969); test: Radioligand binding, 5-HT7 ([3H]LSD); conditions: read-out: Binding affinity (Inhibition rate % at 10 μM) 5HT7
T4 construct: purchased Euroscreen/BioSignal Packard Inc
Description: as §1

5-HT2a = target: T5, 5-HT2a (Homo sapiens, UniProt P28223); test: Radioligand binding, 5-HT2a ([3H]Ketanserin); conditions: read-out: Binding affinity (Inhibition rate % at 10 μM) 5HT2a
T5 construct: purchased Euroscreen/BioSignal Packard Inc
Description: as §1

hD4.2 receptor = target: T6, hD4.2 receptor (Homo sapiens, UniProt P21917, DEL265-296); test: Radioligand binding, dopamine D4 ([3H]YM-09151-2); conditions: read-out: Binding affinity (Inhibition rate % at 10 μM) D4
T6 construct: purchased BioSignal Packard Inc., Montreal, Canada
T6 sequence (P21917 with tags, fused parts or gaps DEL265-296): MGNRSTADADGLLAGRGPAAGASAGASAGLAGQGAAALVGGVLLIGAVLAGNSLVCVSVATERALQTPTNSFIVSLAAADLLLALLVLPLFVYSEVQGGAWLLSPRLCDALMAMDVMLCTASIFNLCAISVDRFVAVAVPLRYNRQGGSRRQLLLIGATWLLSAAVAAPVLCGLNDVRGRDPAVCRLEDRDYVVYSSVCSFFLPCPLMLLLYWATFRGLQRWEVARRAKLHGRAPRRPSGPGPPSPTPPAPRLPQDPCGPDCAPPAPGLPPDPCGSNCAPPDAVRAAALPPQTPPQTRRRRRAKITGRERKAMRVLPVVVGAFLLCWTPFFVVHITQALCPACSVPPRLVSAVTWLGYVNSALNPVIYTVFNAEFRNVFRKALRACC

D1 = D1 (Homo sapiens, UniProt P21728); test: Radioligand binding for selectivity, D1; conditions: read-out: Binding affinity (Inhibition rate % at 10 μM) D1
5-HT1a = target: T7, 5-HT1a (Homo sapiens, UniProt P08908); test: Radioligand binding, 5-HT1a ([3H]8-OH-DPAT); conditions: read-out: Binding affinity (Inhibition rate % at 10 μM) 5HT1a
T7 construct: purchased Euroscreen/BioSignal Packard Inc
T7 sequence (P08908 1-422): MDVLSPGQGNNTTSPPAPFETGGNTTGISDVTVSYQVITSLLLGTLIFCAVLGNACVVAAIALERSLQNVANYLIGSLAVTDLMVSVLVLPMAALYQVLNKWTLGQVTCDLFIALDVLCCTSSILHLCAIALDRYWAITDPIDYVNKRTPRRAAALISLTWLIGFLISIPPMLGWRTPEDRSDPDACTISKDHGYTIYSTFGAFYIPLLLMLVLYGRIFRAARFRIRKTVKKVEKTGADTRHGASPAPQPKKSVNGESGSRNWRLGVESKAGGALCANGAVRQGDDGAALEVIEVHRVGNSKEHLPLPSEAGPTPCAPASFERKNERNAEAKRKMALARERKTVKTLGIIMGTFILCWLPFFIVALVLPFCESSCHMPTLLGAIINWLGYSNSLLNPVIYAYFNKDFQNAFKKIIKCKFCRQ
Description: as §1

5-HT6 receptors [2] = target: T1, 5-HT6 receptors; conditions: literature; cited from earlier work
[3] = target: T8, human serotonin 5-HT6 receptor (Homo sapiens, UniProt P50406); test: [3H]LSD binding at cloned 5-HT6 receptors; conditions: for inhibition at 10 µM: read-out: Binding affinity (Inhibition rate % at 10 μM) 5HT6; for 5-HT6 affinity compared with known selective antagonists: in words
T8 construct: made in house; host or cells: Sf21 insect cells (pBacPAK8 baculovirus vector)

hD3 receptor = target: T9, hD3 receptor (Homo sapiens, UniProt P35462); test: Radioligand binding, dopamine D3 ([3H]spiperone); conditions: read-out: Binding affinity (Inhibition rate % at 10 μM) D3
T9 construct: purchased BioSignal Packard Inc., Montreal, Canada

5-HT6 receptors [4] = target: T1, 5-HT6 receptors; test: 5-HT-stimulated cAMP accumulation in HeLa cell transfected with human 5-HT6 receptor; format: cell-based; design: host or cells: HeLa; conditions: for Antagonist activity compared with methiothepin: 5-HT-stimulated cAMP accumulation; for Functional classification at 5-HT6 receptor: inhibition of 5-HT-stimulated cAMP accumulation
Description: By a method (2000) disclosed by Rutledge et al. of MDS Pharma Service (Bothell, Wash., USA, MDSPS PT# 1037161), activity of adenylil cyclase in HeLa cell having transfected with human 5-HT6 receptor was measured. The assay mixture consisted of Hanks' balanced salt solution (HBSS, pH 7.4) containing: 1 mM MgCl2, 1 mM CaCl2, […] 1-methyl-3-isobutylxanthine. Incubation was started by addition of membrane suspension and compounds according to the present invention.

[5] = system: methamphetamine-induced hyperactivity and stereotypy; test: Methamphetamine-induced hyperactivity and stereotypy in rats; format: in vivo, rat; conditions: 50 mg/kg, i.p., methamphetamine 2 mg/kg
Description: On the day of testing, rats (200-250 g) were put into a transparent polycarbonate cages located in the activity chamber, and adapted for 30 minutes. For a methamphetamine-induced activity, vehicle or compounds according to the present invention was injected (i.p.) 30 minutes before the injection of methamphetamine (2 mg/kg, i.p.). After systemic injection of methamphetamine, total movement distance traveled or total stereotypy was measured over the 120-minutes period using an activity analyzer (TruScan, Coulbourn Instruments, USA).
The inhibitory effect of compounds (50 mg/kg, i.p.) of the present invention on methamphetamine (2 mg/kg, i.p.)-induced hyperactivity in rats is shown in FIGS. 2(a) and 2(b). The inhibitory effects of compounds (50 mg/kg, i.p.) of the present invention on methamphetamine (2 mg/kg, i.p.)-induced stereotypy is shown in FIGS. 3(a) and 3(b).

[6] = in vivo; cited from earlier work
[7] = system: rat maximal electroseizure threshold; conditions: rat maximal electroseizure threshold, oral administration, literature; cited from earlier work
rats = conditions: water maze, literature; cited from earlier work
[8] = [3H]LSD 1.87 nM, cloned receptor membranes, 37° C., 60 min, read-out: IC50

T9 sequence (P35462 whole entry): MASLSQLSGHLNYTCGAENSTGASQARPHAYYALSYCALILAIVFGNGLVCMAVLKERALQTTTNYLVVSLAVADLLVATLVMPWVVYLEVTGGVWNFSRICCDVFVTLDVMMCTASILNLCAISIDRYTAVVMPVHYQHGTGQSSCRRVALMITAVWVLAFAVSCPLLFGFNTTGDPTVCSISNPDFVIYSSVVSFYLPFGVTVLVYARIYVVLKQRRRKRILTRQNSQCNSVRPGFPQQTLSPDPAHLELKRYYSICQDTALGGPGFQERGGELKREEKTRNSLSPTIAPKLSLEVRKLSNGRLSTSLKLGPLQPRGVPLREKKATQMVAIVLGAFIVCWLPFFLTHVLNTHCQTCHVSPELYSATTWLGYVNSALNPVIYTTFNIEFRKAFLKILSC
T4 sequence (P34969 whole entry): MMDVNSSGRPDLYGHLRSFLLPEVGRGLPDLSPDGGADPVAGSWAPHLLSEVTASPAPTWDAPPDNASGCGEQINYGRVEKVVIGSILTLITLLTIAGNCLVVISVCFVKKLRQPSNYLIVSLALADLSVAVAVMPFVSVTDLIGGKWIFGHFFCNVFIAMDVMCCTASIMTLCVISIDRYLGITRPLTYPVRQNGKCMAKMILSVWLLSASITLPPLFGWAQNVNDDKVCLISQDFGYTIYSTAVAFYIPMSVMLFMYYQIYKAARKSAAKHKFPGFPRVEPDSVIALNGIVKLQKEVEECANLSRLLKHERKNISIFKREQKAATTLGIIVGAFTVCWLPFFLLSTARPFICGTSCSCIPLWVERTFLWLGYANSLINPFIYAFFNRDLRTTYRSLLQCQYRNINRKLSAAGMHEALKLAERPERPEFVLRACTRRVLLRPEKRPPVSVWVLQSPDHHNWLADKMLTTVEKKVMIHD
T1 sequence (P50406 whole entry): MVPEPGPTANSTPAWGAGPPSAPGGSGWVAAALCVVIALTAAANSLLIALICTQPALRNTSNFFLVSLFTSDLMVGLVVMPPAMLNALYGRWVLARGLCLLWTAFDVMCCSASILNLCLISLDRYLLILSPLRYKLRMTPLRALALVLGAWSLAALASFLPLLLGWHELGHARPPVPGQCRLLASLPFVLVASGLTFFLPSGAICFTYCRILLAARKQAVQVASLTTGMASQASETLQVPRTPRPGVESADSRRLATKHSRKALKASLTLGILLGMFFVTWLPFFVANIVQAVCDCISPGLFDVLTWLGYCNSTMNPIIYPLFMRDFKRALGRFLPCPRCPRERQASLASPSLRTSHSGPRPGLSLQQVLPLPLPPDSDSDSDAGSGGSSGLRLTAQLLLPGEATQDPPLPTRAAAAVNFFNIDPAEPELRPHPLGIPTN
T8 sequence (P50406 whole entry): as above
T5 sequence (P28223 whole entry): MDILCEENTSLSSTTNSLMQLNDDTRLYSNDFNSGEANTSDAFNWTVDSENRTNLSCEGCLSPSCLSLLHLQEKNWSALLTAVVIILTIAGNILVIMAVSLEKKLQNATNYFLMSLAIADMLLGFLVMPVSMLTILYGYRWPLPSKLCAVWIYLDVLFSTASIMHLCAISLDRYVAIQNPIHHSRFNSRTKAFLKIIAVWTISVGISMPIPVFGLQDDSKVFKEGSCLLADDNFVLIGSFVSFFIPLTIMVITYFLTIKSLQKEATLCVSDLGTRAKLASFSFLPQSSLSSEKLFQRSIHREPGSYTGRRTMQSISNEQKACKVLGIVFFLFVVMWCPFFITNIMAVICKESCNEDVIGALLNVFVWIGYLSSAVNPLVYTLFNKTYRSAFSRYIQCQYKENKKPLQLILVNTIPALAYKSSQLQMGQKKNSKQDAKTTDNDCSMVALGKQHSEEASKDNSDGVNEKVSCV
Chain of D1 (P21728 whole entry): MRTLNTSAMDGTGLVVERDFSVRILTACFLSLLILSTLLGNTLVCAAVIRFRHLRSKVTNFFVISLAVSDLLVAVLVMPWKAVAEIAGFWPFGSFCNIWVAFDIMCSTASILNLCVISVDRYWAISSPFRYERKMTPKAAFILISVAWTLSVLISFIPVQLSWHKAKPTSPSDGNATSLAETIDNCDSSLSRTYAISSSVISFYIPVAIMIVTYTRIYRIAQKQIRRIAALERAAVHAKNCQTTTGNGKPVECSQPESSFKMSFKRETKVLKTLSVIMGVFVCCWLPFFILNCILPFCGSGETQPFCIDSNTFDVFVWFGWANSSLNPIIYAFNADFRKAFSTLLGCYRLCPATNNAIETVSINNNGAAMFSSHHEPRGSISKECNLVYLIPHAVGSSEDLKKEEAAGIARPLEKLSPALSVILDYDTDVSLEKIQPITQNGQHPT
T3 sequence (P14416 whole entry): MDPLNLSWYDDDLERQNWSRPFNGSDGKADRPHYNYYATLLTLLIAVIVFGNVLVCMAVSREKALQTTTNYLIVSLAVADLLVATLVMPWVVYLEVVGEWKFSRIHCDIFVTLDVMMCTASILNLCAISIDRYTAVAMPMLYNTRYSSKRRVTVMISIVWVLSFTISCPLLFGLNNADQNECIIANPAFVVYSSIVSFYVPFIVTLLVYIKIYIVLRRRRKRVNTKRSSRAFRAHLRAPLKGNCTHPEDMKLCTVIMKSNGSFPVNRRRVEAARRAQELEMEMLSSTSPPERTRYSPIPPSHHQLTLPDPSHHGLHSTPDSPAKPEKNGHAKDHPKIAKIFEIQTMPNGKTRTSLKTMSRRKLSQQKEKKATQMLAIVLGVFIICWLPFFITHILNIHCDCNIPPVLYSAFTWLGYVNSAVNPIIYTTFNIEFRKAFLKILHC

Structure (SMILES)	inhibition at 10 µM (5-HT2c)	inhibition at 10 µM (hD2L receptor)	inhibition at 10 µM (5-HT7)	inhibition at 10 µM (5-HT2a)	inhibition at 10 µM (hD4.2 receptor)	inhibition at 10 µM (D1)	inhibition at 10 µM (5-HT1a)	IC50 [3, 8]	inhibition at 10 µM [3]	inhibition at 10 µM (hD3 receptor)	melting point	further results
COc1ccc2c(c1)c(CCN(C)C)cn2S(=O)(=O)c1ccccc1 [MS-245]	–	–	–	–	–	–	–	–	–	–	–	pA2 (5-HT6 receptors [1]): 8.88
COc1cc2c(c(OC)c1)C(=O)C(C)(c1ccccc1)C(=O)N2 (stereo not drawn) [Example 8, 5,7-dimethoxy-3-methyl-3-phenyl-1H-quinoline-2,4-dione]	23.9%	16%	23.3%	13.6%	0.8%	16.9%	30.2%	118 nM	74%	4.6%	–	Ki (5-HT6 receptors [2]): 1.4 nM
CC1(c2ccc(O)cc2)C(=O)Nc2cc(Cl)cc(Cl)c2C1=O (stereo not drawn) [Example 13, 5,7-dichloro-3-(4-hydroxy-phenyl)-3-methyl-1H-quinoline-2,4-dione]	39.4%	35.2%	36.7%	48.6%	0%	51%	33.9%	20 nM	89.5%	27.8%	222 to 223 °C	Antagonist activity compared with methiothepin (5-HT6 receptors [4]): weaker antagonist activity than methiothepin; Functional classification at 5-HT6 receptor (5-HT6 receptors [4]): 5-HT6 receptor antagonist; 5-HT6 affinity compared with known selective antagonists [3]: almost same affinities as or better affinities than known selective antagonists; Antipsychotic effect [5]: mild antipsychotic effect
CC1(c2ccccc2)C(=O)Nc2cc(Cl)cc(Cl)c2C1=O (stereo not drawn) [Example 1, 5,7-dichloro-3-methyl-3-phenyl-1H-quinoline-2,4-dione]	18.3%	1.6%	43.2%	6.4%	0%	11.4%	16.4%	89 nM	91.1%	12.6%	222 to 225 °C	Antagonist activity compared with methiothepin (5-HT6 receptors [4]): weaker antagonist activity than methiothepin; Functional classification at 5-HT6 receptor (5-HT6 receptors [4]): 5-HT6 receptor antagonist; 5-HT6 affinity compared with known selective antagonists [3]: almost same affinities as or better affinities than known selective antagonists; Antipsychotic effect [5]: mild antipsychotic effect
COc1ccc(S(=O)(=O)Nc2cc(Br)cc(F)c2Br)cc1N1CCNCC1 [SB-357134]	–	–	–	–	–	–	–	–	–	–	–	clearance (in words) [6]: low clearance rate; seizure threshold [7]: potent and dose-dependent increase in seizure threshold; retention of a previously learned task (rats): significant improvement in retention of a previously learned task
CC1(c2ccc(OCc3ccccc3)c(Br)c2)C(=O)Nc2cc(Cl)cc(Cl)c2C1=O (stereo not drawn) [Example 23, 3-(4-benzyloxy-3-bromo-phenyl)-5,7-dichloro-3-methyl-1H-quinoline-2,4-dione]	21.9%	9.6%	27.4%	26.4%	0.7%	16.8%	64.9%	1260 nM	70.6%	32.5%	189 to 190 °C	–
C[C@H](NC(=O)Oc1cccc(C2(C)C(=O)Nc3cc(Cl)cc(Cl)c3C2=O)c1)c1ccccc1 (stereo partly drawn) [Example 26]	9.1%	26.5%	12.7%	38.1%	0.5%	50.5%	0%	–	70%	14.8%	91 to 94 °C	IC50 [3]: 980 nM
COc1ccc(C2(C)C(=O)Nc3cc(N4CCN(C)CC4)cc(Cl)c3C2=O)cc1 (stereo not drawn) [Example 46, 5-chloro-3-(4-methoxy-phenyl)-3-methyl-7-(4-methyl-piperazine-1-yl)-1H-quinoline-2,4-dione]	10.7%	30.4%	17.8%	16.5%	7.2%	16%	25.4%	1460 nM	67.1%	16.7%	201 to 202 °C	–
